Data from US9549941B2, “Compositions and methods for treating hepatitis C virus” (priority 2011, dated 2017).

Tests used:
[1] = Moisture sorption of GS-7977 Form 6; format: physicochemical
Excerpt: (§1) In one aspect, the disclosed composition comprises polymorphic Form 6 of GS-7977.

[2] = Chemical stability of GS-7977 Form 6 on open storage; format: physicochemical; details: opened conditions at 40° C./75% RH for 30 days
Excerpt: as §1

[3] = test system: mixture of 50% S282T and 50% WT in GT2a replicons; assay: Long-term passaging study with deep sequencing; format: cell-based, hepatitis C virus; details: after fifteen days
Excerpt: (§2) In vitro studies have shown that S282T is the primary mutation selected by GS-7977 in HCV genotype 1a, 1b and 2a replicon cells. (Lam et al., J. Virology (2011) 85(23): 12334-12342; Lam et al., Antimicrob. Agents Chemother. (2012) 56(6): 3359-3368.) S282T mutations in NS5B were created by site-directed mutagenesis in 1a-H77, 1b con-1, and 2a JFH1 sub-genomic replicons. 1b con-1-based chimeric replicons containing 2b, 3a, 4a, 5a, or 6a NS5B were also engineered to harbor the S282T mutation. […] Relative percentages of mutant and WT were assessed by deep sequencing.
(See also Han et al., 63rd Annual Meeting of the American Association for the Study of Liver Diseases, Poster 1078, Nov. 11, 2012.)

[4] = test system: Hepatitis C virus; details: ribavirin alone, patients with CHC; cited from earlier work
[5] = test system: 1a-H77 sub-genomic replicon, NS5B S282T; assay: microbe, parasite or virus in culture; format: cell-based, hepatitis C virus; details: Hepatitis C virus, read-out: EC50 S282T
Description: as §2, with “(Lam” for “In vitro studies have shown that S282T is the primary mutation selected by GS-7977 in HCV genotype 1a, 1b and 2a replicon cells. (Lam”

[6] = test system: 1b con-1-based chimeric replicon containing 5a NS5B, wild-type; assay: Transient replicon assay; format: cell-based; details: Hepatitis C virus, read-out: EC50 WT
Description: as §2, with “(Lam” for “In vitro studies have shown that S282T is the primary mutation selected by GS-7977 in HCV genotype 1a, 1b and 2a replicon cells. (Lam”

[7] = test system: 1a-H77 sub-genomic replicon, wild-type NS5B; assay: Transient replicon assay; format: cell-based; details: Hepatitis C virus, read-out: EC50 WT
Description: as §2, with “(Lam” for “In vitro studies have shown that S282T is the primary mutation selected by GS-7977 in HCV genotype 1a, 1b and 2a replicon cells. (Lam”

[8] = test system: 1b con-1-based chimeric replicon containing 6a NS5B, wild-type; assay: Transient replicon assay; format: cell-based; details: Hepatitis C virus, read-out: EC50 WT
Description: as §2, with “(Lam” for “In vitro studies have shown that S282T is the primary mutation selected by GS-7977 in HCV genotype 1a, 1b and 2a replicon cells. (Lam”

Row | SMILES | hygroscopicity [1] | moisture sorption ([1]; room temperature and 90% RH) | chemical stability [2] | population WT [3] [%] | effect on HCV RNA levels [4] | EC50 [5] [nM] | EC50 [6] [nM] | EC50 [7] [nM] | EC50 [8] [nM]
1 | CC(C)OC(=O)[C@H](C)N[P@](=O)(OC[C@H]1O[C@@H](n2ccc(=O)[nH]c2=O)[C@](C)(F)[C@@H]1O)Oc1ccccc1 [Form 6] | not hygroscopic | less than 0.2% | chemically stable | – | – | – | – | – | –
2 | NC(=O)c1ncn([C@@H]2O[C@H](CO)[C@@H](O)[C@H]2O)n1 [Ribavirin, 1-β-D-ribofuranosyl-1H-1,2,4-triazole-3-carboxamide, reference compound] | – | – | – | 96 | did not reduce HCV RNA levels during or after therapy | 5 | 1.9 | 21 | 5.3
